From US20240317735A1, “HYDROISOQUINOLINE OR HYDRONAPHTHYRIDINE COMPOUNDS FOR THE TREATMENT OF AUTOIMMUNE DISEASE” (Hoffmann-La Roche Inc., priority 2020, published 2024)

Target: T1, human TLR7 (Homo sapiens, UniProt Q9NYK1)
T1 construct: host or cells: HEK293 (HEK-Blue hTLR7)
T1 sequence (Q9NYK1 27-1049): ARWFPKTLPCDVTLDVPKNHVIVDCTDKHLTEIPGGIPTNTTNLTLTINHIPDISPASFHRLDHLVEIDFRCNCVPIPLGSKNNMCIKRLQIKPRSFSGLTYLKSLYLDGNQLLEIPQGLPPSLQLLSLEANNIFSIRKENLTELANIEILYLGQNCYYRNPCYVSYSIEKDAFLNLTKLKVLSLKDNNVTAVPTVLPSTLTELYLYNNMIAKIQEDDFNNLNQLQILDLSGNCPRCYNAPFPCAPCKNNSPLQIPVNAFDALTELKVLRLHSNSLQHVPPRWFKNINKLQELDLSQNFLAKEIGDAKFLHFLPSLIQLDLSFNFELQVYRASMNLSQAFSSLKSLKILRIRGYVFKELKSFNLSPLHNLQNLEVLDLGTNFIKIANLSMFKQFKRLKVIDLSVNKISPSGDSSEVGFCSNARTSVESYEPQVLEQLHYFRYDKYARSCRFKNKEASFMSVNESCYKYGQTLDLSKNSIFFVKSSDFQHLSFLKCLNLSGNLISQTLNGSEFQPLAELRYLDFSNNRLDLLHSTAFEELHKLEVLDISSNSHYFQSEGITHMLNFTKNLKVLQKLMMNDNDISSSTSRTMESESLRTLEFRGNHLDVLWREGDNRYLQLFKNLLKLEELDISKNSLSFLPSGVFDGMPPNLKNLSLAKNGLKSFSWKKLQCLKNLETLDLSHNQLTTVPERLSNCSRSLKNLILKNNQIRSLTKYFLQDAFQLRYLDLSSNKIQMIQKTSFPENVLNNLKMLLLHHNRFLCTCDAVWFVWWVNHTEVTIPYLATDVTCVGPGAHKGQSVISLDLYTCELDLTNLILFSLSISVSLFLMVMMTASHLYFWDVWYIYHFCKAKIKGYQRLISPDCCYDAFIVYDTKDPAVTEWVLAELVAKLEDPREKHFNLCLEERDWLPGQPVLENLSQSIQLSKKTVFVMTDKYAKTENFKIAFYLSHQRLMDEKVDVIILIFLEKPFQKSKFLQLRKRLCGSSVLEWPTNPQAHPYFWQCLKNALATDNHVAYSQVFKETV
Assay: HEK293-Blue-hTLR-7 cells assay (SEAP reporter, R848 stimulation)
Assay type: cell-based
Conditions: HEK293-Blue-hTLR7 cells, R848, 20 hrs; read-out: HEK/hTLR7 IC50
Protocol: The following tests were carried out in order to determine the activity of the compounds of formula (I) and (Ia) in HEK293-Blue-hTLR-7/8/9 cells assay.
A stable HEK293-Blue-hTLR-7 cell line was purchased from InvivoGen (Cat. #: hkb-htlr7, San Diego, California, USA). These cells were originally designed for studying the stimulation of human TLR7 by monitoring the activation of NF-κB. A SEAP (secreted embryonic alkaline phosphatase) reporter gene was placed under the control of the IFN-β minimal promoter fused to five NF-κB and AP-1-binding sites. The SEAP was induced by activating NF-κB and AP-1 via stimulating HEK-Blue hTLR7 cells with TLR7 ligands. Therefore the reporter expression w % as declined by TLR7 antagonist under the stimulation of a ligand, such as R848 (Resiquimod), for incubation of 20 hrs. The cell culture supernatant SEAP reporter activity was determined using QUANTI-Blue™ kit (Cat. #: rep-qb1, Invivogen, San Diego, Ca, USA) at a wavelength of 640 nm, a detection medium that turns purple or blue in the presence of alkaline phosphatase.
HEK293-Blue-hTLR7 cells were incubated at a density of 250,000˜450,000 cells/mL in a volume of 170 μL in a 96-well plate in Dulbecco's Modified Eagle's medium (DMEM) containing 4.5 g/L glucose, 50 U/mL penicillin, […], […] Normocin, 2 mM L-glutamine, 10% (v/v) heat-inactivated fetal bovine serum with addition of 20 μL test compound in a serial dilution in the presence of final DMSO at 1% and 10 μL of 20 uM R848 in above DMEM, perform incubation under 37° C. in a C02 incubator for 20 hrs. Then 20 μL of the supernatant from each well was incubated with 180 μL Quanti-blue substrate solution at 37° C. for 2 hrs and the absorbance was read at 620˜655 nm using a spectrophotometer. The signaling pathway that TLR7 activation leads to downstream NF-κB activation has been widely accepted, and therefore similar reporter assay was modified for evaluating TLR7 antagonist.

| IC50 | Structure (SMILES) |
| --- | --- |
| 12 nM | C[C@H]1CN(c2ccnc3c2cnn3C)Cc2ccc(OC[C@@H]3CNCCN3C=O)cc21 [Example 45, (2S)-2-[[(4R)-4-methyl-2-(1-methylpyrazolo[3,4-b]pyridin-4-yl)-3,4-dihydro-1H-isoquinolin-6-yl]oxymethyl]piperazine-1-carbaldehyde] |
| 10 nM | C[C@H]1CN(c2ccnc3c2cnn3C)Cc2ccc(N3C[C@@H](N)[C@H](O)C3)cc21 [Example 46, trans-4-amino-1-[(4R)-4-methyl-2-(1-methylpyrazolo[3,4-b]pyridin-4-yl)-3,4-dihydro-1H-isoquinolin-6-yl]pyrrolidin-3-ol] |
| 13 nM | Cc1cc(N2Cc3ccc(N4C[C@@H](N)[C@H](O)C4)cc3[C@@H](C)C2)c2cnn(C)c2n1 [Example 47, trans-4-amino-1-[(4R)-2-(1,6-dimethylpyrazolo[3,4-b]pyridin-4-yl)-4-methyl-3,4-dihydro-1H-isoquinolin-6-yl]pyrrolidin-3-ol] |
| 13 nM | Cc1cc(N2Cc3ccc(N4CC5(CNCCO5)C4)cc3[C@@H](C)C2)c2cnn(C)c2n1 [Example 48, 2-[(4R)-2-(1,6-dimethylpyrazolo[3,4-b]pyridin-4-yl)-4-methyl-3,4-dihydro-1H-isoquinolin-6-yl]-5-oxa-2,8-diazaspiro[3.5]nonane] |
| 5 nM | C[C@H]1CN(c2ccnc3c2cnn3C)Cc2ccc(N3CCNC(CO)C3)cc21 (stereo partly drawn) [Example 49, [4-[(4R)-4-methyl-2-(1-methylpyrazolo[3,4-b]pyridin-4-yl)-3,4-dihydro-1H-isoquinolin-6-yl]piperazin-2-yl]methanol] |
| 10 nM | C[C@H]1CN(c2ccnc3c2cnn3C)Cc2ccc(N3CCN[C@@H](CO)C3)cc21 [Example 50, [(2R)-4-[(4R)-4-methyl-2-(1-methylpyrazolo[3,4-b]pyridin-4-yl)-3,4-dihydro-1H-isoquinolin-6-yl]piperazin-2-yl]methanol] |
| 9 nM | C[C@H]1CN(c2ccnc3c2cnn3C)Cc2ccc(N3CCN[C@H](CO)C3)cc21 [Example 51, [(2S)-4-[(4R)-4-methyl-2-(1-methylpyrazolo[3,4-b]pyridin-4-yl)-3,4-dihydro-1H-isoquinolin-6-yl]piperazin-2-yl]methanol] |
| 9 nM | C[C@H]1CN(c2ccnc3c2cnn3C)Cc2ccc(N3CC4(CCNC4)CC3=O)cc21 (stereo partly drawn) [Example 52, 2-[(4R)-4-methyl-2-(1-methylpyrazolo[3,4-b]pyridin-4-yl)-3,4-dihydro-1H-isoquinolin-6-yl]-2,7-diazaspiro[4.4]nonan-3-one] |
| 2 nM | Cc1cc(N2Cc3ccc(N4CCC(N)CC4)nc3[C@@H](C)C2)c2cnn(C)c2n1 [Example 58, 1-[(8S)-6-(1,6-dimethylpyrazolo[3,4-b]pyridin-4-yl)-8-methyl-7,8-dihydro-5H-1,6-naphthyridin-2-yl]piperidin-4-amine] |
| 2 nM | Cc1cc(N2Cc3ccc(N4CCC(C)(N)CC4)nc3[C@@H](C)C2)c2cnn(C)c2n1 [Example 59, 4-methyl-1-[(8S)-6-(1,6-dimethylpyrazolo[3,4-b]pyridin-4-yl)-8-methyl-7,8-dihydro-5H-1,6-naphthyridin-2-yl]piperidin-4-amine] |
| 3 nM | Cc1cc(N2Cc3ccc(N4CCC(N(C)C)CC4)nc3[C@@H](C)C2)c2cnn(C)c2n1 [Example 60, N,N-dimethyl-1-[(8S)-6-(1,6-dimethylpyrazolo[3,4-b]pyridin-4-yl)-8-methyl-7,8-dihydro-5H-1,6-naphthyridin-2-yl]piperidin-4-amine] |
| 3 nM | Cc1cc(N2Cc3ccc(N4CCC(O)(CN(C)C)CC4)nc3[C@@H](C)C2)c2cnn(C)c2n1 [Example 61, 4-[(dimethylamino)methyl]-1-[(8S)-6-(1,6-dimethylpyrazolo[3,4-b]pyridin-4-yl)-8-methyl-7,8-dihydro-5H-1,6-naphthyridin-2-yl]piperidin-4-ol] |
| 5 nM | Cc1cc(N2Cc3ccc(OC4CCNCC4)nc3[C@@H](C)C2)c2cnn(C)c2n1 [Example 64, (8S)-6-(1,6-dimethylpyrazolo[3,4-b]pyridin-4-yl)-8-methyl-2-(4-piperidyloxy)-7,8-dihydro-5H-1,6-naphthyridine] |
| 6 nM | CO[C@H]1CN(c2ccc3c(n2)[C@@H](C)CN(c2cc(C)nc4c2cnn4C)C3)CC[C@@H]1N [Example 65, (3S,4S)-3-methoxy-1-[(8S)-6-(1,6-dimethylpyrazolo[3,4-b]pyridin-4-yl)-8-methyl-7,8-dihydro-5H-1,6-naphthyridin-2-yl]piperidin-4-amine] |
| 8 nM | Cc1cc(N2Cc3ccc(N4CCNCC4)nc3[C@@H](C)C2)c2cnn(C)c2n1 [Example 66, (8S)-6-(1,6-dimethylpyrazolo[3,4-b]pyridin-4-yl)-8-methyl-2-piperazin-1-yl-7,8-dihydro-5H-1,6-naphthyridine] |
| 11 nM | Cc1cc(N2Cc3ccc(N4CCN(C)CC4)nc3[C@@H](C)C2)c2cnn(C)c2n1 [Example 67, (8S)-6-(1,6-dimethylpyrazolo[3,4-b]pyridin-4-yl)-8-methyl-2-(4-methylpiperazin-1-yl)-7,8-dihydro-5H-1,6-naphthyridine] |
| 17 nM | Cc1cc(N2Cc3ccc(N4CC5(CNCCO5)C4)nc3[C@@H](C)C2)c2cnn(C)c2n1 [Example 68, 2-[(8S)-6-(1,6-dimethylpyrazolo[3,4-b]pyridin-4-yl)-8-methyl-7,8-dihydro-5H-1,6-naphthyridin-2-yl]-5-oxa-2,8-diazaspiro[3.5]nonane] |
| 30 nM | Cc1cc(N2Cc3ccc(N4C[C@@H](F)[C@@H](N)C4)nc3[C@@H](C)C2)c2cnn(C)c2n1 [Example 69, (3S,4R)-4-fluoro-1-[(8S)-6-(1,6-dimethylpyrazolo[3,4-b]pyridin-4-yl)-8-methyl-7,8-dihydro-5H-1,6-naphthyridin-2-yl]pyrrolidin-3-amine] |
| 36 nM | Cc1cc(N2Cc3ccc(N4CCOC5(CNC5)C4)nc3[C@@H](C)C2)c2cnn(C)c2n1 [Example 70, 8-[(8S)-6-(1,6-dimethylpyrazolo[3,4-b]pyridin-4-yl)-8-methyl-7,8-dihydro-5H-1,6-naphthyridin-2-yl]-5-oxa-2,8-diazaspiro[3.5]nonane] |
| 21 nM | Cc1cc(N2Cc3ccc(N4CCNCC4)nc3[C@H](C)C2)c2cnn(C)c2n1 [Example 72, (8R)-6-(1,6-dimethylpyrazolo[3,4-b]pyridin-4-yl)-8-methyl-2-piperazin-1-yl-7,8-dihydro-5H-1,6-naphthyridine] |

| Structure (SMILES) | IC50 |
| --- | --- |
| C[C@H]1CN(c2ccnc3c2cnn3C)Cc2ccc(N3CCNCC3)nc21 [Example 62, (8S)-8-methyl-6-(1-methylpyrazolo[3,4-b]pyridin-4-yl)-2-piperazin-1-yl-7,8-dihydro-5H-1,6-naphthyridine] | 5 nM |
| CO[C@@H]1CN(c2ccc3c(n2)[C@@H](C)CN(c2cc(C)nc4c2cnn4C)C3)C[C@H]1N [Example 63, (3R,4R)-4-methoxy-1-[(8S)-6-(1,6-dimethylpyrazolo[3,4-b]pyridin-4-yl)-8-methyl-7,8-dihydro-5H-1,6-naphthyridin-2-yl]pyrrolidin-3-amine] | 5 nM |
